{
  "source": "patent EP1984014B1",
  "about": "“USE OF TPO PEPTIDE COMPOUNDS AND PHARMACEUTICAL COMPOSITIONS IN THE TREATMENT OF ANEMIA” (Janssen Pharmaceutica NV, priority 2006, dated 2007)",
  "key": {"[1]": {"test_system": "mice treated with carboplatin", "assay": "Example 1: dose response of PEGylated TPO Compound No. 1 given one day after carboplatin, anemia in mice", "type": "in vivo, BALB/c mouse", "conditions": "carboplatin alone 2x60mg/kg ip; by Day 11", "method": "(§1) The effects of PEGylated TPO Compound No. 1 on mice treated with carboplatin were observed. For all examples herein, a 10 mg/ml stock solution of PEGylated TPO Compound No. 1 was prepared in sterile saline. For mixing, the preparation was placed on a gyratory shaker for 15min. at 200 rpm. This method was used to dissolve PEGylated TPO Compound No. 1 without foaming. The stock was filtered using a GV Millex (0.22um) filter. Dosing solutions were then prepared from this stock using sterile saline. The stock and dosing solutions were prepared fresh on the day of use.\nThe effect of PEGylated TPO Compound No. 1 on the duration and severity of anemia following treatment of mice with carboplatin as determined by changes in hemoglobin levels, red blood cell count and hematocrit, was observed. For this study, increasing amounts of PEGylated TPO Compound No. 1 were administered to mice one day following a carboplatin dose to characterize a possible dose-dependent effect on various red blood cell parameters.\n(§2) The groups of mice were treated with either carboplatin or vehicle (Phosphate Buffered Saline, PBS) by intraperitoneal administration on Days -2 and -1 as delineated below. The optimal dose of carboplatin used to induce thrombocytopenia in the BALB/c mouse strain was previously determined to be a fractionated total dose of 120mg/kg given as two consecutive daily injections (i.e., 2x60mg/kg). One day following the second dose of carboplatin, groups of mice were treated with PEGylated TPO Compound No. 1 or vehicle (sterile saline, SS, preservative-free 0.9% sodium chloride) by IV (bolus) injection as delineated in Table 1. The dose was administered on a per-weight basis (100ul/10g body weight).\nOn Days 5, 7, 9 and 11, five mice in each test group were weighed and then euthanised using CO2-asphyxiation and exsanguinations via cardiac puncture. The blood samples were transferred to separate EDTA (lavender-top) microcontainers for hematologic evaluation. Groups of control mice (5) were processed on Days 5 and 11. The data are presented graphically as group means +SEM."}, "[2]": {"test_system": "mice treated with carboplatin", "assay": "Example 2: dosing seven days before and/or 1 hour after carboplatin, hematological parameters in mice", "type": "in vivo, BALB/c mouse", "conditions": "carboplatin alone", "method": "as §1\nThe possibility that PEGylated TPO Compound No. 1 may sensitize bone marrow hematopoietic stem cells of mice to the toxic effects of carboplatin treatment was examined. For this study, a dose of PEGylated TPO Compound No. 1 was administered to the mice seven days prior to the carboplatin dose or immediately after carboplatin treatment. An additional group was treated with PEGylated TPO Compound No. 1 both prior to and after carboplatin administration. The effect of these dosing regimens on hematological parameters was also observed.\nThe groups of mice were treated with either carboplatin or vehicle (Phosphate Buffered Saline, PBS) by ip administration on Days 7 and 8 as delineated below. The optimal dose of carboplatin used to induce thrombocytopenia in the BALB/c mouse strain was previously determined to be a fractionated total dose of 120mg/kg given as two consecutive daily injections (i.e., 2x60mg/kg). Seven days prior to the first carboplatin dose or one (1) hour after the second dose of carboplatin, groups of mice were treated with PEGylated TPO Compound No. 1 (300ug/kg) or vehicle (sterile saline, SS, preservative-free 0.9% sodium chloride) by IV (bolus) injection as delineated in Table 2. An additional group was treated with PEGylated TPO Compound No. 1 both before (Day 0) and after (Day 8, t=1h) the carboplatin dose. All dosing was performed on a per-weight basis (100ul/10g body weight).\nOn Days 14, 18, 22 and 26, five mice in each test group were weighed and then euthanised using CO2-asphyxiation and exsanguination via cardiac puncture. The blood samples were transferred to separate EDTA (lavender-top) microcontainers for hematological evaluation. Groups of control mice (5) were processed on Days 14 and 26. The data are presented graphically as group means + SEM."}, "[3]": {"test_system": "mice treated with carboplatin", "assay": "Example 3: dosing 1 hour, 1 day or 4 days after carboplatin, anemia in mice", "type": "in vivo, BALB/c mouse", "conditions": "carboplatin alone; surviving mice (2 mice) by Day 12 compared to control groups", "method": "as §1\nThe effect of PEGylated TPO Compound No. 1 on the duration and severity of anemia following dosing regimens in which PEGylated TPO Compound No. 1 is administered at various times following the carboplatin treatment was observed. For this study, an amount of PEGylated TPO Compound No. 1 was administered to mice, one (1) hour, one (1) day or four (4) days following a carboplatin dose.\nThe groups of mice were treated with either carboplatin or vehicle (Phosphate Buffered Saline, PBS) by ip administration on Days -1 and 0 as delineated below. The optimal dose of carboplatin used to induce thrombocytopenia in the BALB/c mouse strain was previously determined to be a fractionated total dose of 120mg/kg given as two consecutive daily injections (i.e., 2x60mg/kg). One hour (Day 0), one day (Day 1) or four days (Day 4) following the second dose of carboplatin, groups of mice were treated with PEGylated TPO Compound No. 1 (300ug/kg) or vehicle (sterile saline, SS, preservative-free 0.9% sodium chloride) by IV (bolus) injection as delineated in Table 3. The dose was administered on a per-weight basis (100ul/10g body weight).\nOn Days 6, 8, 10 & 12, five mice in each test group were weighed and then euthanised using CO2-asphyxiation and exsanguinations via cardiac puncture. The blood samples were transferred to separate EDTA (lavender-top) microcontainers for hematological evaluation. Groups of control mice (5) were processed on Days 6 & 12. The data are presented graphically as group means + SEM."}, "carboplatin-treated mice": {"test_system": "carboplatin-treated mice", "assay": "Example 4: lower doses (30, 100, 300ug/kg) as survival factor for erythrocyte lineages in carboplatin-treated mice", "type": "in vivo, BALB/c mouse", "conditions": "carboplatin alone; by Day 12", "method": "as §1\nThe ability of PEGylated TPO Compound No. 1 to function as a survival factor for megakaryocyte and erythrocyte lineages in carboplatin-treated mice as determined by changes in hematological parameters was observed. […] In this study, the effect of lower doses of PEGylated TPO Compound No. 1 (i.e., 30, 100 and 300ug/kg) on the survival of erythrocyte lineages was examined to characterize the dose-response for this effect.\nas §2, with “ip” for “intraperitoneal”, “-1” for “-2”, “0” for “-1”, “Approximately one hour” for “One day”, “4.” for “1.”\nOn Days 6, 8 and 12, five mice in each test group were weighed and then euthanised using CO2-asphyxiation and exsanguinations via cardiac puncture. The blood samples were transferred to separate EDTA (lavender-top) microcontainers for hematologic evaluation. Groups of control mice (5) were processed on Days 6 & 12."}, "[4]": {"test_system": "mice treated with two rounds of carboplatin", "assay": "Example 5: two rounds of high-dose carboplatin, hematocrit and survival of mice", "type": "in vivo", "conditions": "of the mice not utilized for hematological evaluation; carboplatin alone versus combination therapy", "method": "as §1\nGroups of mice were treated with two rounds of the chemotherapeutic agent (carboplatin) ten days apart, with each round consisting of two consecutive days of carboplatin (i.e., 70 mg/kg/day administered on Days -1 & 0 and Days 10 & 11) as delineated below. The dose of carboplatin utilized for these survival studies exceeded the maximal tolerated dose for mice (i.e., 120 mg/kg; administered as 60 mg/kg/day on 2 consecutive days). One hour following the second dose of carboplatin in each round (i.e., Day 0 and 11) mice were treated with PEGylated TPO Compound No. 1 (100ug/kg) or vehicle (sterile saline, SS, preservative-free 0.9% sodium chloride) by IV (bolus) injection as delineated below. The dose was administered on a per weight basis (100 ul/10g body weight). […]"}},
  "data": [
    {"smiles": "N.N.O=C([O-])C1(C(=O)[O-])CCC1.[Pt+2]", "note": "[carboplatin]", "values": [
      {"measurement": "decrease in hemoglobin levels", "setting": "[1]", "result": "~20", "unit": "%"},
      {"measurement": "lost body weight (average)", "setting": "[2]; between Days 7 and 26", "result": "approximately 4%"},
      {"measurement": "decreases in hemoglobin levels, RBC counts and hematocrits", "setting": "[2]; by Days 18 and 22 compared to control groups", "result": "approx. 18%"},
      {"measurement": "decreases in hemoglobin levels, RBC counts and hematocrits", "setting": "[3]", "result": "approx. 47%"},
      {"measurement": "decrease in hemoglobin levels", "setting": "carboplatin-treated mice", "result": "greater than 25%"},
      {"measurement": "mice that died between days 4 and 18", "setting": "[4]", "result": 7}
    ]}
  ]
}
